Earlier results as cited in patent US20250127175A1, “ANTIMICROBIAL POLYMER COMPOSITIONS, ANTIMICROBIAL POLYMER ARTICLES, AND METHODS OF MAKING THE SAME” (CORNING INCORPORATED, priority 2021, published 2025).

Conditions: water-soluble defined as minimum of 20 grams in 100 milliliters of water at 25° C.

For `CCCCn1cc[n+](C)c1.F[P-](F)(F)(F)(F)F` [1-butyl-3-methylimidazolium hexafluorophosphate], the “water solubility (in words)” value is listed as “water insoluble”.
